Row | Compound | melting point [°C]
1 | CS(=O)(=O)c1ccc(-c2cc(C(CCCCCO[N+](=O)[O-])=NO)nn2C2CCCCC2)cc1 | 111 to 113
2 | CC(=O)NCc1ccc2c(c1)CN(C1CCC(=O)NC1=O)C2=O (stereo not drawn) | 183 to 185
3 | COc1ccc2c(c1OC)CCN(CCc1ccc(NC(=O)c3cccc4c(=O)c5cccc(OC)c5[nH]c34)cc1)C2 | 235 to 237
4 | CCc1nnc(Cc2ccc(NC(=O)/C=C/c3cnn(C)c3-c3ccc(F)cc3)cc2)o1 | 164 to 165
5 | CCCc1nc2c(N)nc3ccccc3c2n1Cc1cc(-c2cccnc2)on1 | 206 to 207
6 | Cn1cnnc1C(N)(c1ccc(I)cc1)c1ccc2c(c1)c(-c1cccc(Cl)c1)nc1nnnn12 (stereo not drawn) | 238
7 | COc1ccc(CO)cc1OCc1nc(-c2ccccc2)oc1C | 144 to 145
8 | CCCc1ncc(CN2CCN(c3ccccc3OC)CC2)c(N)n1 | 130
9 | Cc1nc2sccn2c(=O)c1CCN1CCC(NC(=O)c2cc(Cl)c(N)c3c2OCCC3)CC1 | 212
10 | CC(=O)NCc1ccc(-c2ccc([N+](=O)[O-])cc2)o1 | 149 to 151
11 | COCOCc1ccc(C2Cn3cc(C(=O)NCc4ccc(Cl)cc4)c(=O)c4cc(CN5CCOCC5)cc(c43)O2)cc1 (stereo not drawn) | 236 to 239
12 | C[C@H](N)C(=O)N(CC(=O)O)C1Cc2ccccc2C1 | 180 to 182
13 | c1cc(-c2cn3c(n2)CCC3)ccn1 | 140 to 141
14 | CCCCNC(=O)Nc1ncc2cc(-c3c(Cl)cccc3Cl)c(NC(=O)NCCCC)nc2n1 | 200 to 202
15 | CC(CCCO[Si](C)(C)C(C)(C)C)C1CCC2C3CC=C4C(C)(C)C(O[Si](C)(C)C(C)(C)C)CCC4(C)C3CCC12C (stereo not drawn) | 161 to 162
16 | O=C1C(c2ccc(O)cc2)=C(c2ccccc2)c2cc(O)cc(O)c21 | 128 to 130
17 | CC(C)CCCOc1ccc2[nH]ncc2c1 | 124 to 126
18 | O=C1c2cc(O)ccc2OCC1Cc1c[nH]c2ccccc12 (stereo not drawn) | 188 to 190
19 | Cc1c(-c2cccnc2)n(Cc2ccc(C(=O)O)cc2)c2ccccc12 | 273 to 275

Row | Compound | melting point [°C]
20 | C1=CCCCCN(CCc2nccc3c2[nH]c2ccccc23)CCCC1 | 77 to 82
21 | CC(C)NC(=O)c1c(NC(=O)c2cc(C(F)(F)F)nn2-c2ncccc2Cl)c(C#N)cc2cn[nH]c12 | 226 to 229
22 | CC1(C)CCC(C)(C)c2cc(OCc3ccc(C#N)cc3)ccc21 | 149 to 150
23 | CC(C)c1c(O)ccc2c1oc1ccc(C#N)cc12 | 180 to 182
24 | CCOC(=O)c1c(CCl)nc2sc(C)c(C)c2c1-c1ccc(OC)c(OC)c1 | 162 to 163
25 | O=c1cc(-c2ccccc2)oc2cc(OCCn3ccnc3)ccc12 | 155 to 159
26 | CCN(CC)CCN(CCN1CCCCC1)c1ccc(-c2nc3ccccc3[nH]2)cc1 | 190 to 191
27 | CC(O)C1CCC2C3CCC4=CC(O)CCC4(C)C3CCC12C (stereo not drawn) | 169 to 170
28 | O=C(NCCN1CCCC1)c1ccc(OCc2ccc(-c3ccccc3)cc2)nc1 | 153 to 157
29 | CC=CCn1c(C)c(C)c2cnnc(SCc3ccc(F)cc3F)c21 | 122 to 127
30 | CC(C)(C)n1ncc(OCc2ccc(OCC(F)(F)C(F)F)nc2)c(Cl)c1=O | 112 to 118
31 | Cc1[nH]c2ccccc2c1/C=C/C(=O)c1ccncc1 | 268 to 272
32 | CC(C)(C)OC(=O)CNC1Cc2ccccc2C1 | 54 to 55
33 | O=C1c2ccccc2C(=O)c2sc(-c3cccs3)nc21 | > 260
34 | Cc1nc(N2CCN(Cc3ccc(C(=O)N4CCCCC4)cc3)C2=O)sc1-c1ccn[nH]1 | 156 to 157
35 | COc1cc(-c2ccccc2C(F)(F)F)c(Cl)cc1C(=O)N1Cc2ccc(C(=O)N(C)CC(O)C(O)C(O)C(O)CO)n2Cc2ccccc21 (stereo not drawn) | 150 to 151
36 | CCOC(=O)/C=C/c1nc(COc2ccc(C=O)cc2OC)c(C)o1 | 117 to 118
37 | COCCOC(=O)C1Oc2ccccc2Cc2ccccc2O1 | 74 to 76
38 | COCCOC(=O)C1=C(O)c2ccccc2S(=O)(=O)N1C | 106 to 108
